Where a SMILES comes first, the peptide text is derived from it. Bridges are numbered along the chain shown (N, C = ends). [ ]: non-standard residue; d: D form. The star is where a group is joined. X1 = CC[C@H](C)CCCCC(=O)*; Dab = NCC[C@H](N)C(=O)O
Columns and labels:
[1] = tested on: mucin from the porcine stomach; assay: PMB binding to mucin by ultracentrifugation in CAMHB with 1% mucin; type: in vitro ADME; parameters: Unbound conc.: unit not given here
Procedure: Mucin from the porcine stomach was obtained from Sigma-Aldrich (Merck KGaA, Saint-Quentin Fallavier, France) and solubilized in NaCl 0.9% to obtain a solution at 20% (pH adjusted to 7). The solution was autoclaved at 110°C for 15 minutes.
PMB solutions at concentrations ranging from 0.5 to 10,000 mg/L in CAMHB with 1% mucin were incubated for 1 h at 35°C, then ultracentrifuged at ~290 000 g for 5 h at room temperature (Beckman Optima LE-80K, rotor: Beckman Coulter 70.1 Ti), according to a method previously described ([35]). Unbound PMB concentrations in the supernates were determined by LC-MS/MS (method adapted from a previous publication ([36]) and detailed in Supplemental material) and used to determine the unbound fraction (fu) of PMB. Potential PMB sedimentation ([37]) during experimentation was determined from PMB solutions prepared in mucin-free CAMHB and subjected to the same ultracentrifugation conditions as previously described, and then used to correct for unbound PMB concentrations.
The same procedure was performed with a nonautoclaved mucin solution. Experiments were done in triplicate.
The relationship between fu and PMB total concentrations was modeled according to a sigmoidal Emax function (equation 1):
(1) fu=E0+ Imax × C^ε/IC50ε+ C^ε,
where E0 represents the minimum fu, Imax the maximum increase in fu, IC50 (mg/L) corresponds to PMB total concentration needed to reach 50% of Imax, C (mg/L) to the PMB total concentration, and ε to the Hill coefficient.
Parameter estimation was performed using nonlinear regression with iteratively reweighted least squares (R, version 4.1.3 – Package: robustbase, version 0.99–0). Two sets of parameters were estimated, one for the data generated with autoclaved mucin, another for the data generated without autoclave. The two sets of parameters were compared using ANOVA testing.

[2] = tested on: Acinetobacter baumannii AB122-D12; assay: PMB MIC in CAMHB with or without 1% mucin, AB122-D12; type: cell-based
Procedure: Two clinical MDR strains of A. baumannii, isolated from a patient before (AB121-D0) and 12 days after treatment with colistin (AB122-D12), were used during this study ([32]). AB122-D12 carries a 10 amino acid insertion into the pmrB gene, known to confer PMB resistance.
PMB MICs of both A. baumannii strains were determined in commercial CAMHB (BioMérieux, Marcy-l’Etoile, France) according to the European Committee on Antimicrobial Susceptibility Testing and Clinical and Laboratory Standards Institute (CLSI) recommendations ([33], [34]). PMB MICs of the two A. baumannii isolates were also determined at least in duplicate in CAMHB supplemented with 1% of mucin.

[3] = equation 1 fit, all data pooled, value (variance) in Table 1, CAMHB + 1% mucin, ultracentrifugation, LC-MS/MS, triplicate
[4] = equation 1 fit, autoclaved mucin data
[5] = equation 1 fit, non-autoclaved mucin data
[6] = simulated with equation 1, autoclaved mucin parameters, total conc. 0.5, CAMHB + 1% mucin
[7] = simulated with equation 1, autoclaved mucin parameters, total conc. 1, CAMHB + 1% mucin
[8] = simulated with equation 1, autoclaved mucin parameters, total conc. 2, CAMHB + 1% mucin
[9] = simulated with equation 1, autoclaved mucin parameters, total conc. 4, CAMHB + 1% mucin
[10] = simulated with equation 1, autoclaved mucin parameters, total conc. 8, CAMHB + 1% mucin
[11] = simulated with equation 1, autoclaved mucin parameters, total conc. 10, CAMHB + 1% mucin
[12] = simulated with equation 1, autoclaved mucin parameters, total conc. 50, CAMHB + 1% mucin
[13] = simulated with equation 1, autoclaved mucin parameters, total conc. 100, CAMHB + 1% mucin
[14] = simulated with equation 1, autoclaved mucin parameters, total conc. 500, CAMHB + 1% mucin
[15] = simulated with equation 1, autoclaved mucin parameters, total conc. 1000, CAMHB + 1% mucin
[16] = simulated with equation 1, autoclaved mucin parameters, total conc. 5000, CAMHB + 1% mucin
[17] = simulated with equation 1, autoclaved mucin parameters, total conc. 10000, CAMHB + 1% mucin
[18] = simulated with equation 1, non-autoclaved mucin parameters, total conc. 0.5, CAMHB + 1% mucin
[19] = simulated with equation 1, non-autoclaved mucin parameters, total conc. 1, CAMHB + 1% mucin
[20] = simulated with equation 1, non-autoclaved mucin parameters, total conc. 2, CAMHB + 1% mucin
[21] = simulated with equation 1, non-autoclaved mucin parameters, total conc. 4, CAMHB + 1% mucin
[22] = simulated with equation 1, non-autoclaved mucin parameters, total conc. 8, CAMHB + 1% mucin
[23] = simulated with equation 1, non-autoclaved mucin parameters, total conc. 10, CAMHB + 1% mucin
[24] = simulated with equation 1, non-autoclaved mucin parameters, total conc. 50, CAMHB + 1% mucin
[25] = simulated with equation 1, non-autoclaved mucin parameters, total conc. 100, CAMHB + 1% mucin
[26] = simulated with equation 1, non-autoclaved mucin parameters, total conc. 500, CAMHB + 1% mucin
[27] = simulated with equation 1, non-autoclaved mucin parameters, total conc. 1000, CAMHB + 1% mucin
[28] = simulated with equation 1, non-autoclaved mucin parameters, total conc. 5000, CAMHB + 1% mucin
[29] = simulated with equation 1, non-autoclaved mucin parameters, total conc. 10000, CAMHB + 1% mucin
[30] = simulated with equation 1, pooled data parameters, total conc. 0.5, CAMHB + 1% mucin
[31] = simulated with equation 1, pooled data parameters, total conc. 1, CAMHB + 1% mucin
[32] = simulated with equation 1, pooled data parameters, total conc. 2, CAMHB + 1% mucin
[33] = simulated with equation 1, pooled data parameters, total conc. 4, CAMHB + 1% mucin
[34] = simulated with equation 1, pooled data parameters, total conc. 8, CAMHB + 1% mucin
[35] = simulated with equation 1, pooled data parameters, total conc. 10, CAMHB + 1% mucin
[36] = simulated with equation 1, pooled data parameters, total conc. 50, CAMHB + 1% mucin
[37] = simulated with equation 1, pooled data parameters, total conc. 100, CAMHB + 1% mucin
[38] = simulated with equation 1, pooled data parameters, total conc. 500, CAMHB + 1% mucin
[39] = simulated with equation 1, pooled data parameters, total conc. 1000, CAMHB + 1% mucin
[40] = simulated with equation 1, pooled data parameters, total conc. 5000, CAMHB + 1% mucin
[41] = simulated with equation 1, pooled data parameters, total conc. 10000, CAMHB + 1% mucin

## CC[C@H](C)CCCCC(=O)N[C@@H](CCN)C(=O)N[C@H](C(=O)N[C@@H](CCN)C(=O)N[C@H]1CCNC(=O)[C@H]([C@@H](C)O)NC(=O)[C@H](CCN)NC(=O)[C@H](CCN)NC(=O)[C@H](CC(C)C)NC(=O)[C@@H](Cc2ccccc2)NC(=O)[C@H](CCN)NC1=O)[C@@H](C)O [PMB, polymyxin B] (X1-[Dab]T[Dab][Dab][Dab][dF]L[Dab][Dab]T; lactam 4-C)
[1]; PMB concentrations encountered in clinical practice, up to 10 mg/L, 1% mucin
  PMB bound to mucin: approximately 95%
[1]; PMB total concentration of 200 mg/L (b7) or higher than 200 mg/L, CAMHB + 1% mucin, ultracentrifugation, LC-MS/MS
  PMB unbound fraction (fu), maximum: 60%
[1]; PMB total concentrations up to 20 mg/L, CAMHB + 1% mucin, 1 h 35°C, ultracentrifugation ~290 000 g 5 h, LC-MS/MS, triplicate
  PMB unbound fraction (fu): 6%
[1]; [3]
  IC50, PMB total concentration needed to reach 50% of the maximum fu: 114.37 (196) mg/L
  Imax, maximum PMB fu increase: 0.56 (0.0009)
  ε, Hill coefficient of fu vs total concentration: 1.97 (0.252)
[1]; [4]
  IC50 of fu model: 104.01 µg/mL
  Imax, maximum fu increase: 0.56
[1]; equation 1 fit, autoclaved mucin data, CAMHB + 1% mucin, ultracentrifugation
  E0, minimum fu: 0.067
[1]; [5]
  IC50 of fu model: 126.95 µg/mL
  Imax, maximum fu increase: 0.57
[1]; equation 1 fit, non-autoclaved mucin data, CAMHB + 1% mucin, ultracentrifugation
  E0, minimum fu: 0.056
[1]; sigmoidal Emax fit of fu vs PMB total concentration (equation 1), all data pooled, value (variance) in Table 1, CAMHB + 1% mucin, 1 h 35°C, ultracentrifugation ~290 000 g 5 h room temperature, LC-MS/MS, triplicate
  E0, minimum PMB fu value: 0.061 (0.0004)
[1]; [6]
  Unbound conc.: 0.03
  fu (95% CI): 6.7 (0.1 - 13.2) %
[1]; [7]
  Unbound conc.: 0.07
  fu (95% CI): 6.7 (0.1 - 13.2) %
[1]; [8]
  Unbound conc.: 0.13
  fu (95% CI): 6.7 (0.1 - 13.2) %
[1]; [9]
  Unbound conc.: 0.27
  fu (95% CI): 6.7 (0.3 - 13.2) %
[1]; [10]
  Unbound conc.: 0.55
  fu (95% CI): 6.9 (0.7 - 13.0) %
[1]; [11]
  Unbound conc.: 0.70
  fu (95% CI): 7.0 (1.0 - 13.0) %
[1]; [12]
  Unbound conc.: 7.96
  fu (95% CI): 15.9 (7.7 – 24.2) %
[1]; [13]
  Unbound conc.: 33.4
  fu (95% CI): 33.4 (24.9 – 41.9) %
[1]; [14]
  Unbound conc.: 304
  fu (95% CI): 60.8 (55.0 - 66.6) %
[1]; [15]
  Unbound conc.: 621
  fu (95% CI): 62.1 (57.2 – 67.1) %
[1]; [16]
  Unbound conc.: 3120
  fu (95% CI): 62.5 (57.1 – 67.9) %
[1]; [17]
  Unbound conc.: 6250
  fu (95% CI): 62.5 (57.1 – 68.0) %
[1]; [18]
  Unbound conc.: 0.03
  fu (95% CI): 5.6 (2.1 - 9.1) %
[1]; [19]
  Unbound conc.: 0.06
  fu (95% CI): 5.6 (2.1 - 9.1) %
[1]; [20]
  Unbound conc.: 0.11
  fu (95% CI): 5.6 (2.2 - 9.1) %
[1]; [21]
  Unbound conc.: 0.23
  fu (95% CI): 5.7 (2.3 - 9.1) %
[1]; [22]
  Unbound conc.: 0.48
  fu (95% CI): 5.9 (2.7 - 9.1) %
[1]; [23]
  Unbound conc.: 0.61
  fu (95% CI): 6.1 (3.0 - 9.2) %
[1]; [24]
  Unbound conc.: 7.08
  fu (95% CI): 14.2 (10.5 – 17.8) %
[1]; [25]
  Unbound conc.: 27.9
  fu (95% CI): 27.9 (23.8 – 32.1) %
[1]; [26]
  Unbound conc.: 293
  fu (95% CI): 58.6 (54.6 - 62.6) %
[1]; [27]
  Unbound conc.: 615
  fu (95% CI): 61.5 (58.4 – 64.7) %
[1]; [28]
  Unbound conc.: 3130
  fu (95% CI): 62.7 (58.6 – 66.7) %
[1]; [29]
  Unbound conc.: 6270
  fu (95% CI): 62.7 (58.6 - 66.9) %
[1]; [30]
  Unbound conc.: 0.03
  fu (95% CI): 6.1 (2.1 - 10.0) %
[1]; [31]
  Unbound conc.: 0.06
  fu (95% CI): 6.1 (2.1 - 10.0) %
[1]; [32]
  Unbound conc.: 0.12
  fu (95% CI): 6.1 (2.2 - 10.0) %
[1]; [33]
  Unbound conc.: 0.25
  fu (95% CI): 6.1 (2.3 - 10.0) %
[1]; [34]
  Unbound conc.: 0.51
  fu (95% CI): 6.4 (2.7 - 10.0) %
[1]; [35]
  Unbound conc.: 0.65
  fu (95% CI): 6.5 (3.0 - 10.1) %
[1]; [36]
  Unbound conc.: 7.62
  fu (95% CI): 15.2 (10.7 - 19.7) %
[1]; [37]
  Unbound conc.: 30.4
  fu (95% CI): 30.4 (25.6 - 35.2) %
[1]; [38]
  Unbound conc.: 296
  fu (95% CI): 59.2 (55.1 - 63.2) %
[1]; [39]
  Unbound conc.: 613
  fu (95% CI): 61.3 (58.2 - 64.4) %
[1]; [40]
  Unbound conc.: 3100
  fu (95% CI): 62.1 (58.4 - 65.8) %
[1]; [41]
  Unbound conc.: 6210
  fu (95% CI): 62.1 (58.3 - 65.8) %
[2]; CAMHB + 1% mucin, unbound MIC = MIC x fu
  MICu (corrected by fu): 628 mg/L
[2]; MIC with 1% mucin corrected by fu
  MICu ratio in the presence and absence of mucin: 20
[2]; total concentrations
  Fold increase of MIC in the presence of 1% mucin compared to CAMHB: 32 fold
